The target of one data set is T1, BRD2(1) (h) bromodomain (Homo sapiens, UniProt P25440).
T1 construct: Bromodomain
The data set is described as follows: Epigenetic binding assay, Bromodomain. To be noted: for % Inhibition of Control Specific Binding / inhibition at 10 µM: 10 μM; for inhibition at 10 µM: read-out: % Inhibition of Control Specific Binding.

The target in another data set is T2, BRD4(1) (h) bromodomain (Homo sapiens, UniProt O60885).
T2 construct: Bromodomain
The data set is described as follows: Epigenetic binding assay, Bromodomain. The settings on record: read-out: % Inhibition of Control Specific Binding.

Another data set concerns the target T3, CBX7 (h) chromodomain (Homo sapiens, UniProt O95931).
T3 construct: Recognition and specificity determinants of the human cbx chromodomains; Eurofins CEREP (France), contract laboratory
T3 sequence (O95931 11-69 limits assumed): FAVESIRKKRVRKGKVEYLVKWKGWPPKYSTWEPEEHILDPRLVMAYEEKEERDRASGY
The data set is described as follows: Epigenetic binding assay, Chromodomain. To be noted: read-out: % Inhibition of Control Specific Binding.

Another data set addresses DNMT1 (h) (Homo sapiens, UniProt P26358). The data set is described as follows: Epigenetic enzyme assay, DNA methyltransferases (DNMTs). It counts as biochemical. To be noted: read-out: % Inhibition of Control Values.
The target of the next data set is hSMYD2 (Homo sapiens, UniProt Q9NRG4). Nature of the data set: Epigenetic enzyme assay, Methyltransferases (MTs). It counts as biochemical. The settings on record: for inhibition at 10 µM: read-out: % Inhibition of Control Values.
A further data set concerns the target SUV39H2 (h) (Homo sapiens, UniProt Q9H5I1). Nature of the data set: Epigenetic enzyme assay, Methyltransferases (MTs). It counts as biochemical. To be noted: for inhibition at 10 µM: read-out: % Inhibition of Control Values.
The target in data set [1] is T4, Angiotensin Converting Enzyme (Oryctolagus cuniculus, UniProt P12822).
T4 construct: from tissue; host or cells: rabbit lung
T4 sequence (P12822 34-1310): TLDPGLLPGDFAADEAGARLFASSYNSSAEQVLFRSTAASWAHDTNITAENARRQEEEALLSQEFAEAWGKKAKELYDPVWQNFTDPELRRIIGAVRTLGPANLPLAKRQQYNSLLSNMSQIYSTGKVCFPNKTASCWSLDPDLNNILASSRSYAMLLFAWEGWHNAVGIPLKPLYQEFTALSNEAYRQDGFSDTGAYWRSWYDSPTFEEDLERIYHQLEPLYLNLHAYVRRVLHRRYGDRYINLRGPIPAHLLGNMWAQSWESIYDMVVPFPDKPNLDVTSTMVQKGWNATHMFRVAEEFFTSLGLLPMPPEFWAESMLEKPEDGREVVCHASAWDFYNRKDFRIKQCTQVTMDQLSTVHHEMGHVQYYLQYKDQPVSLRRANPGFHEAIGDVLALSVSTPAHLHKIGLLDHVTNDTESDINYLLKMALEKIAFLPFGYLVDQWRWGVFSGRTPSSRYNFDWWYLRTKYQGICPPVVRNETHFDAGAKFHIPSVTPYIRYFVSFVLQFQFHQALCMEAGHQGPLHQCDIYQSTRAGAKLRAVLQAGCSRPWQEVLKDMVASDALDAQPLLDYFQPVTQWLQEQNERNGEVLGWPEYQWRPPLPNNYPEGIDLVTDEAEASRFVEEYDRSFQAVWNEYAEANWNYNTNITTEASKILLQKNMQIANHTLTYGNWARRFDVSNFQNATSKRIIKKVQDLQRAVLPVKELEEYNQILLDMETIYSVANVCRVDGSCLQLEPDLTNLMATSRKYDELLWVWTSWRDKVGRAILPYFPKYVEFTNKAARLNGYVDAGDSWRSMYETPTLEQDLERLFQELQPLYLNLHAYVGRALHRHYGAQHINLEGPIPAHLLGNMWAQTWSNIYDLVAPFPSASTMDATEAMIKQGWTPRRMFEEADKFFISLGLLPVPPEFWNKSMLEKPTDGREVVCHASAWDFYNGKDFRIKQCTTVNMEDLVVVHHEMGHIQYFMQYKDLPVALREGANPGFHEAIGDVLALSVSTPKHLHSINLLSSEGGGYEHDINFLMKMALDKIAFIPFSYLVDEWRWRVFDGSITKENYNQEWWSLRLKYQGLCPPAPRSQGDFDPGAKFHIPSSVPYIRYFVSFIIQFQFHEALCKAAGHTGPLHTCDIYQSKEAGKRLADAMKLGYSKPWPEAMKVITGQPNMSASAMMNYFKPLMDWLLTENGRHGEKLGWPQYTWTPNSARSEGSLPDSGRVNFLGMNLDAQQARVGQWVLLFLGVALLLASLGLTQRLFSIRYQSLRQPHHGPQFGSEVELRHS
Nature of the data set: Peptidase, Angiotensin Converting Enzyme. The settings on record: assay year 2015. It counts as biochemical, Rabbit. As for the experimental part: (§1) The in vitro pharmacological studies were conducted by Eurofins PanLab (Taiwan) using the parameters shown in Table 13 with respect to appropriate literature references.

A further data set concerns the target T5, Histamine H1 (Homo sapiens, UniProt P35367).
T5 construct: expressed in transfected cells; host or cells: Chem-1 cells
The data set is described as follows: Histamine H1 radio ligand binding. As for the experimental part: as §1

Another data set concerns the target T6, Histamine H3 (Homo sapiens, UniProt Q9Y5N1).
T6 construct: expressed in transfected cells; host or cells: Chem-1 cells
The data set is described as follows: Histamine H3 radio ligand binding. How it is done: as §1

The next data set has as its system SK-NEP-1 kidney. Nature of the data set: OncoPanel cell proliferation assay (10-day). It counts as cell-based. To be noted: Homo sapiens; for EC50: read-out: Cell Count EC50; for IC50: read-out: Cell Count IC50.
Another data set deals with T7, CYP2C8 (Homo sapiens, UniProt P10632).
T7 construct: Human liver microsomes; from tissue; host or cells: human liver microsomes
T7 sequence (P10632 1-490): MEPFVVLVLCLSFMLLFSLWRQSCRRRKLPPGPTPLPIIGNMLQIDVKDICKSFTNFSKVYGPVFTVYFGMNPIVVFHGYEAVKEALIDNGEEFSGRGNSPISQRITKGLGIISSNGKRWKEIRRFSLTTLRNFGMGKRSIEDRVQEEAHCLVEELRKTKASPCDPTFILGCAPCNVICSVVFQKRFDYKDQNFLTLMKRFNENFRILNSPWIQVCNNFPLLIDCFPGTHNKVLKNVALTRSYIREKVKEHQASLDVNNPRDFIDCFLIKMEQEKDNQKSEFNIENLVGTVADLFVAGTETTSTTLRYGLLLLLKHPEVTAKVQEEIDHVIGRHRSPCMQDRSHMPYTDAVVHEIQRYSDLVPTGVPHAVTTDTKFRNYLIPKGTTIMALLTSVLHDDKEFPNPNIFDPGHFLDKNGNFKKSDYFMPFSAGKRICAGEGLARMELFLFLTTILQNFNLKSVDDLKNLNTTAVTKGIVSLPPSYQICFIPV
The data set is described as follows: Cytochrome P450 Inhibition (CYP panel). It counts as in vitro ADME. To be noted: probe paclitaxel.

Another data set deals with T8, CYP2C19 (Homo sapiens, UniProt P33261).
T8 construct: Human liver microsomes; from tissue; host or cells: human liver microsomes
Nature of the data set: Cytochrome P450 Inhibition (CYP panel). To be noted: human liver microsomes, probe omeprazole. It counts as in vitro ADME.

Setting [2] is: assay year 2014, read-out: % Control Response.
Where [3] appears, read: assay year 2015, read-out: % Control Response.
Setting [4] is: SK-NEP-1, Kidney, read-out: Cell Count GI50.
Where [5] appears, read: human, human liver microsomes, read-out: % inhibition.
Setting [6] is: CYP2C8 (paclitaxel sub.), Human liver microsomes, read-out: % Inhibition of Control Values.
The mark [7] stands for this setting: CYP2C19 (omeprazole sub.), Human liver microsomes, read-out: % Inhibition of Control Values.

Read-outs that look alike come from different tables or passages of the source.

T5 sequence (P35367 whole entry): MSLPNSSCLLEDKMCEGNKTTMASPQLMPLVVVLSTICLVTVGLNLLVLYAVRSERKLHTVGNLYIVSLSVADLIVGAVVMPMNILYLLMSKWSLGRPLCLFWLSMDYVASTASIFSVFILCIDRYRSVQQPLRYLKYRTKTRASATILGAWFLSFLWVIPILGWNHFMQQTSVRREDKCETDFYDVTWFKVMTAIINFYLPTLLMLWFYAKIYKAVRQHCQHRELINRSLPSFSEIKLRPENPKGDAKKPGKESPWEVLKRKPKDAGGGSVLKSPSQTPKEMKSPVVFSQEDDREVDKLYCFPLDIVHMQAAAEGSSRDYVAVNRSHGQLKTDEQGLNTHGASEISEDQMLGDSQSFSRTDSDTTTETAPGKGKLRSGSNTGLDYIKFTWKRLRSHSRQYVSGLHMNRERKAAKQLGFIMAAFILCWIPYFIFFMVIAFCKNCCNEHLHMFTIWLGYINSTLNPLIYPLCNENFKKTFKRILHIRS
Sequence of hSMYD2 (Q9NRG4 whole entry): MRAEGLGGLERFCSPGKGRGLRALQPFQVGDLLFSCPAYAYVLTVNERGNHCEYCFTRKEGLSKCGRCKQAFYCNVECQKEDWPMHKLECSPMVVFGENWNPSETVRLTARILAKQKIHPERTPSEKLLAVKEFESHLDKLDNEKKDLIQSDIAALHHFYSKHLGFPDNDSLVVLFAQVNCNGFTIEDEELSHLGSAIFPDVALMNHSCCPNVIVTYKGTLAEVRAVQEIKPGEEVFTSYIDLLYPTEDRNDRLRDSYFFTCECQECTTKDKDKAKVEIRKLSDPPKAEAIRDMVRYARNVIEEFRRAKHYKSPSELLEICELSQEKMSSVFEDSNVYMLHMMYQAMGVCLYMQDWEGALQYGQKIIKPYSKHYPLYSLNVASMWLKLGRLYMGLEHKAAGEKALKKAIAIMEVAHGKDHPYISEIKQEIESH
Sequence of SUV39H2 (h) (Q9H5I1 whole entry): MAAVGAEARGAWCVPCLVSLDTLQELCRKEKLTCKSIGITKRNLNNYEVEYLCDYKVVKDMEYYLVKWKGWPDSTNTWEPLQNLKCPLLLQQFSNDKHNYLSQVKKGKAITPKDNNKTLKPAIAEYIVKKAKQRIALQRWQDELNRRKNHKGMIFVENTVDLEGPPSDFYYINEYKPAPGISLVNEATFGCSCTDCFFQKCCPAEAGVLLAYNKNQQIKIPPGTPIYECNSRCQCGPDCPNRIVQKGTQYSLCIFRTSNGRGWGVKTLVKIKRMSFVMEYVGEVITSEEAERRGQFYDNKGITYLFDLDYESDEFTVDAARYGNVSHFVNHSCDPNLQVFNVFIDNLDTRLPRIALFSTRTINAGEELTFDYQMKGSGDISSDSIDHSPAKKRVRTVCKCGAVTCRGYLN
T8 sequence (P33261 whole entry): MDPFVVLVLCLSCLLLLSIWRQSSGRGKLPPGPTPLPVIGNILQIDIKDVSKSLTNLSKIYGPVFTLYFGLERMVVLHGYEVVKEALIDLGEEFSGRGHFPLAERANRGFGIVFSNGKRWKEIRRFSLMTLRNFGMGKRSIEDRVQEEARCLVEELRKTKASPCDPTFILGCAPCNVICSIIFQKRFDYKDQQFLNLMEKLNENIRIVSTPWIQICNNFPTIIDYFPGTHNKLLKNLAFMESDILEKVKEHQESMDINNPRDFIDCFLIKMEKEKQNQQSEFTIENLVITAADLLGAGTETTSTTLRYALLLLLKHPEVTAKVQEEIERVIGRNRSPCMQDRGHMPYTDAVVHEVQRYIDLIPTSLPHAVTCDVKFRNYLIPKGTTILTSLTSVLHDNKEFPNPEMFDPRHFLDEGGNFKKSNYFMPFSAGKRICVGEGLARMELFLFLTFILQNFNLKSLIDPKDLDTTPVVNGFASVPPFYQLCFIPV
T6 sequence (Q9Y5N1 whole entry): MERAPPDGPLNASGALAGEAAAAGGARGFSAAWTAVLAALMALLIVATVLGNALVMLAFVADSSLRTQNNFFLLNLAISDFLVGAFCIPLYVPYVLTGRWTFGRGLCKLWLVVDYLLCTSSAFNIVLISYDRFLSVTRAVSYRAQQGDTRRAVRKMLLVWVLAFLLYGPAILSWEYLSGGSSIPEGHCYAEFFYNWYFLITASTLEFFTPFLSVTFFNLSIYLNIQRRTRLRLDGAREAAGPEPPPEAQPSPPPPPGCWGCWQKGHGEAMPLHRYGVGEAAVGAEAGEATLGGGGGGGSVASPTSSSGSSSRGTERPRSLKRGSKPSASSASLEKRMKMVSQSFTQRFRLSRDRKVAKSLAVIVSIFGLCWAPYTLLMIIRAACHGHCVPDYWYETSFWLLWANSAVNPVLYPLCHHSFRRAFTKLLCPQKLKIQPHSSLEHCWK
T1 sequence (P25440 74-180 limits assumed): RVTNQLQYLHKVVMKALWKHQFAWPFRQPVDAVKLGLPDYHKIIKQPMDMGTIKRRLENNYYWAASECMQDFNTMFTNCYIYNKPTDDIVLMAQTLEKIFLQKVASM
Sequence of DNMT1 (h) (P26358 whole entry): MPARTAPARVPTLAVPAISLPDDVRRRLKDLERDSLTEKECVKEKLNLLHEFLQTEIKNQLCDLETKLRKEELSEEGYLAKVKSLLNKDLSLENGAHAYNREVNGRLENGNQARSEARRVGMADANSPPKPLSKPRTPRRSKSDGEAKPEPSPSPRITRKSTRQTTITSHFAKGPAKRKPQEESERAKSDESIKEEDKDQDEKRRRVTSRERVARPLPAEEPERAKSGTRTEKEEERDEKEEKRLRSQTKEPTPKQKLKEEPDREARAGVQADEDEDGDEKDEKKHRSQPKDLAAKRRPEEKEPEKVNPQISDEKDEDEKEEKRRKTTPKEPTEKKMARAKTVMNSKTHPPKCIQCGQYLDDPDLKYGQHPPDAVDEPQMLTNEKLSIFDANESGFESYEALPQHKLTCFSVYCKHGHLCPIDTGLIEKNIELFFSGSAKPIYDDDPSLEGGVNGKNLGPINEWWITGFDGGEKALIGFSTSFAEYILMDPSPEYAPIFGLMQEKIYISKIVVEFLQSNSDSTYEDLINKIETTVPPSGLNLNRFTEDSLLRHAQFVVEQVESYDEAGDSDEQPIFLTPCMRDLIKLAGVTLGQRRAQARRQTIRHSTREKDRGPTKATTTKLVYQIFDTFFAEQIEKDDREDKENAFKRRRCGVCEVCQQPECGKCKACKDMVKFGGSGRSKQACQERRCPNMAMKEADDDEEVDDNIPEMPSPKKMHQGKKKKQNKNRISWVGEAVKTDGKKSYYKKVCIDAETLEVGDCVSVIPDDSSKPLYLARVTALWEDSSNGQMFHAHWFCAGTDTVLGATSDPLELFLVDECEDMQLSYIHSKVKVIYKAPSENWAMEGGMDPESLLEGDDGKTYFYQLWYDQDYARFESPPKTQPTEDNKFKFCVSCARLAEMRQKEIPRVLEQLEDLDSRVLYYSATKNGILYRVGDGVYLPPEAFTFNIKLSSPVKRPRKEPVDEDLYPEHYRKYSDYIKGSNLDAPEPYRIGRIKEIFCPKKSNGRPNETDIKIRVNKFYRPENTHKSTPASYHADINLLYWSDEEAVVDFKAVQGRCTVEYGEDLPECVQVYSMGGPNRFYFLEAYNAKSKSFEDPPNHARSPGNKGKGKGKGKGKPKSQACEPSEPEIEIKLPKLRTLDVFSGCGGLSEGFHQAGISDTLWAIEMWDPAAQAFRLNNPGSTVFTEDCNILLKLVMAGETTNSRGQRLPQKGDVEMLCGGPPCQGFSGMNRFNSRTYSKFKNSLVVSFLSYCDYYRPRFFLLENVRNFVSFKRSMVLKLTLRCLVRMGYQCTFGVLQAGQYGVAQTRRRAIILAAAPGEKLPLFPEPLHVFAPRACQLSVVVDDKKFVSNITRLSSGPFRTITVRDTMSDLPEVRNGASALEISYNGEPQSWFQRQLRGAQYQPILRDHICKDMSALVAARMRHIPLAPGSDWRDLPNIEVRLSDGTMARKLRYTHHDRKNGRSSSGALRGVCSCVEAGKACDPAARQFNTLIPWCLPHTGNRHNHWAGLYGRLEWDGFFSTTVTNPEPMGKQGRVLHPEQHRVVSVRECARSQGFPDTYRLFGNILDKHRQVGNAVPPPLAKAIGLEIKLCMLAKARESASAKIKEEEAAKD

`CC(C)=CCC[C@@H]1C(O)Oc2c(C)cc(O)c3c2[C@H]1CC[C@H]3C` (some centres unmarked) [Compound 2, 5,18-epoxyserrulat-14-en-8,18-diol]: on BRD2(1) (h) bromodomain, the “% Inhibition of Control Specific Binding” value is listed as “significant activity”. Also, the inhibition at 10 µM at BRD2(1) (h) bromodomain is 89%; at BRD4(1) (h) bromodomain it was 11%; on CBX7 (h) chromodomain it was 33%; at DNMT1 (h), 4%; on hSMYD2, 5%; at SUV39H2 (h), -16%. Moreover, the values for the inhibition at 10 µM at CYP2C8 (setting [6]) and on CYP2C19 (setting [7]) were 52% and 73%, respectively. Moreover, the IC50 on BRD2(1) (h) bromodomain (Table 9, inhibition/concentration-response curve) worked out at 22 µM; in the data set on SK-NEP-1 kidney (SK-NEP-1, Kidney), 60 nM. Further, the % control response at 10 µM in data set [1] was -3%. For the same compound, the remaining activity at 10 µM on Histamine H1 (setting [2]) is 66%; at Histamine H1 (setting [3]), 60%; at Histamine H3 (setting [2]) it was -5%; on Histamine H3 (setting [3]) it was 24%. Also, the GI50 with SK-NEP-1 kidney (SK-NEP-1, read-out: GI50) turned out to be 60.6 nM; with SK-NEP-1 kidney (setting [4]), 60 nM. The concentration for a half-maximal effect (EC50) in the data set on SK-NEP-1 kidney (SK-NEP-1, Kidney) was 60 nM. Also, the inhibition at 1 µM at CYP2C8 (setting [5]) is 12 to 24%; on CYP2C8 (setting [6]), 12%; at CYP2C19 (read-out: % inhibition), 25 to 37%; at CYP2C19 (setting [7]), 34%.
In the case of `CC(C)=CCC[C@@H]1COc2c(C)cc(O)c3c2[C@H]1CC[C@H]3C` [Compound 3, 5,18-epoxy-8-hydroxyserrulat-14-ene], the inhibition at 10 µM was 19% on BRD2(1) (h) bromodomain; 8% on BRD4(1) (h) bromodomain; 43% at CBX7 (h) chromodomain; -5% at DNMT1 (h); -12% at hSMYD2; 14% at SUV39H2 (h). Besides, the % control response at 10 µM in data set [1] is -3%. Moreover, the values for the remaining activity at 10 µM on Histamine H1 (setting [3]) and on Histamine H3 (setting [3]) were 50% and 1%, respectively.
For the compound `CC(C)=CCC[C@H](CO)[C@@H]1CC[C@@H](C)c2c1cc(C)c(O)c2O` [Compound 1, 7,8,18-trihydroxyserrulat-14-ene], the “% Inhibition of Control Specific Binding” value on BRD2(1) (h) bromodomain is listed as “significant inhibitory activity”. Besides, the inhibition at 10 µM is 60% at BRD2(1) (h) bromodomain; 49% at BRD4(1) (h) bromodomain; 25% at CBX7 (h) chromodomain; 10% at DNMT1 (h); 12% on hSMYD2; -8% at SUV39H2 (h). For the same compound, the figures for the inhibition at 10 µM at CYP2C8 (setting [6]) and at CYP2C19 (setting [7]) were 76% and 90%, respectively. The % control response at 10 µM in data set [1] was 0%. Also, the remaining activity at 10 µM was 85% at Histamine H1 (setting [2]), 97% at Histamine H1 (setting [3]), -10% at Histamine H3 (setting [2]) and 12% on Histamine H3 (setting [3]). In addition, the GI50 in the data set with SK-NEP-1 kidney (SK-NEP-1, read-out: GI50) is 6.18 nM; with SK-NEP-1 kidney (setting [4]) it was 6 nM. Also, the EC50 in the data set with SK-NEP-1 kidney (SK-NEP-1, Kidney) is 10 nM. The IC50 in the data set on SK-NEP-1 kidney (SK-NEP-1, Kidney) came out at 10 nM. The inhibition at 1 µM on CYP2C8 (setting [5]) was 12 to 24%; at CYP2C8 (setting [6]), 14%; at CYP2C19 (read-out: % inhibition), 25 to 37%; at CYP2C19 (setting [7]), 37%.
As to `CC(C)=CCC[C@H](C)[C@@H]1CC[C@@H](C)c2c1cc(C)c(O)c2O` [Compound 4, 7,8-dihydroxyserrulat-14-ene], the EC50 in the data set with SK-NEP-1 kidney (SK-NEP-1, Kidney) was 9620 nM. Besides, in the data set with SK-NEP-1 kidney (setting [4]), the GI50 was 9620 nM. Besides, in the data set on SK-NEP-1 kidney (SK-NEP-1, Kidney), the IC50 was 9630 nM. Moreover, the inhibition at 1 µM is 12 to 24% at CYP2C8 (setting [5]), 24% at CYP2C8 (setting [6]), 25 to 37% at CYP2C19 (read-out: % inhibition) and 25% at CYP2C19 (setting [7]). For the same compound, the figures for the inhibition at 10 µM on CYP2C8 (setting [6]) and on CYP2C19 (setting [7]) were 61% and 78%, respectively.
`Nc1ncnc2c1ncn2[C@@H]1O[C@H](CSCC[C@H](N)C(=O)O)[C@@H](O)[C@H]1O` [SAH]: the figures for the IC50 on hSMYD2 (read-out: Reference IC50) and on SUV39H2 (h) (read-out: Reference IC50) were 160 nM and 24 µM, respectively.

For the origin of these results see patent US11331299B2, “Medicinal use of serrulatane diterpenes” (The University of Sydney, priority 2016, dated 2022).
